From ChEMBL document CHEMBL4311992, “Discovery of 3-(((9H-purin-6-yl)amino)methyl)-4,6-dimethylpyridin-2(1H)-one derivatives as novel tubulin polymerization inhibitors for treatment of cancer” (Eur J Med Chem, 2019)
The source made the active and inactive calls. The rule behind the calls is not given here.

Columns and labels:
SW-620 [1] = assay: Induction of apoptosis in human SW620 cells assessed as necrotic cells at 25 nM measured after 48 hrs by Annexin V-FITC/propidium iodide staining-based flow cytometry (reference value: 2.71%); assay type: functional
[2] = biological target: Phosphatidylinositol 5-phosphate 4-kinase type-2 alpha (Homo sapiens) (UniProt P48426); assay: Inhibition of recombinant full-length human PIP4K2alpha assessed as residual activity at 10 uM using phosphatidylinositol 5-phosphate as substrate measured after 40 mins by HTRF assay
Chain of Phosphatidylinositol 5-phosphate 4-kinase type-2 alpha (Homo sapiens) (P48426 whole entry): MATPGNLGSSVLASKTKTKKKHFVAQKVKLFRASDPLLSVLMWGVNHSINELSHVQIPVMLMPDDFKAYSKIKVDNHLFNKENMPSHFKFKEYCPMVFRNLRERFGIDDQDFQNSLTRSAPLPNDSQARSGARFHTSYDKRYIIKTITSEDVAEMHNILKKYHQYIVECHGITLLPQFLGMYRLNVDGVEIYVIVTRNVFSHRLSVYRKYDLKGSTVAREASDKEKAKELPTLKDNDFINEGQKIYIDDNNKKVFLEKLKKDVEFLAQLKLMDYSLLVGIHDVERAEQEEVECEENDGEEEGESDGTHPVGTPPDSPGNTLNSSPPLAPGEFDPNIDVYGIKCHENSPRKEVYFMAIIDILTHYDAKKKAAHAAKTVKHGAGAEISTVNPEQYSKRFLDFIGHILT

[3] = biological target: PI3K p110 beta/p85 alpha (Homo sapiens) (UniProt P27986+P42338); assay: Inhibition of recombinant full-length human PI3K p110beta/p85alpha assessed as residual activity at 10 uM using phosphatidylinositol-4, 5-bisphosphate as substrate measured after 40 mins by fluorescence assay; assay type: protein-complex assay
[4] = biological target: Serine/threonine-protein kinase DCLK2 (Homo sapiens) (UniProt Q8N568); assay: Inhibition of recombinant human DCAMKL2 (376 to end residues) assessed as residual activity at 10 uM using KKLNRTLSFAEPG as substrate measured after 40 mins in presence of [gamma33P]ATP by scintillation counting method
[5] = biological target: Serine/threonine-protein kinase N2 (Homo sapiens) (UniProt Q16513); assay: Inhibition of human PRK2 (501 to end residues) using AKRRRLSSLRA as substrate measured after 40 mins in presence of [gamma33P]ATP by scintillation counting method; parameters: scale not given: the % may be the effect or the level left
[6] = biological target: Serine/threonine-protein kinase 10 (Homo sapiens) (UniProt O94804); assay: Inhibition of recombinant human LOK (1 to 348 residues) assessed as residual activity at 10 uM using RLGRDKYKTLRQIRQ as substrate measured after 40 mins in presence of [gamma33P]ATP by scintillation counting method
[7] = biological target: Death-associated protein kinase 3 (Homo sapiens) (UniProt O43293); assay: Inhibition of human ZIPK (1 to 290 residues) using KKLNRTLSFAEPG as substrate measured after 40 mins in presence of [gamma33P]ATP by scintillation counting method; parameters: scale not given: the % may be the effect or the level left
Chain of Death-associated protein kinase 3 (Homo sapiens) (O43293 whole entry, looked up, the tested form may be a part): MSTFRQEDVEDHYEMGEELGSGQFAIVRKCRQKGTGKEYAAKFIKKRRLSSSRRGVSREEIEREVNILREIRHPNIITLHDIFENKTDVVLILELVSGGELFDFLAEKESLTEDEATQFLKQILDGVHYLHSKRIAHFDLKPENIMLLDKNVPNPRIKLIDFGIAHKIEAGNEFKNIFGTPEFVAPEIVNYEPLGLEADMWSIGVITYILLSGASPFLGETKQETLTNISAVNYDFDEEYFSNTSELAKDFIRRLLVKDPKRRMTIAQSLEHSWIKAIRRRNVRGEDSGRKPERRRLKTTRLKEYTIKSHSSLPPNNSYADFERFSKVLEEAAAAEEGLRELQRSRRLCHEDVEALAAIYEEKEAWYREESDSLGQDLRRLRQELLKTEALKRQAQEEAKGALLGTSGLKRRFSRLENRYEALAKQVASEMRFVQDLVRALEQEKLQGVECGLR

[8] = biological target: Mitogen-activated protein kinase 13 (Homo sapiens) (UniProt O15264); assay: Inhibition of recombinant full-length human SAPK4 assessed as residual activity at 10 uM using myelin basic protein as substrate measured after 40 mins in presence of [gamma33P]ATP by scintillation counting method
Chain of Mitogen-activated protein kinase 13 (Homo sapiens) (O15264 whole entry): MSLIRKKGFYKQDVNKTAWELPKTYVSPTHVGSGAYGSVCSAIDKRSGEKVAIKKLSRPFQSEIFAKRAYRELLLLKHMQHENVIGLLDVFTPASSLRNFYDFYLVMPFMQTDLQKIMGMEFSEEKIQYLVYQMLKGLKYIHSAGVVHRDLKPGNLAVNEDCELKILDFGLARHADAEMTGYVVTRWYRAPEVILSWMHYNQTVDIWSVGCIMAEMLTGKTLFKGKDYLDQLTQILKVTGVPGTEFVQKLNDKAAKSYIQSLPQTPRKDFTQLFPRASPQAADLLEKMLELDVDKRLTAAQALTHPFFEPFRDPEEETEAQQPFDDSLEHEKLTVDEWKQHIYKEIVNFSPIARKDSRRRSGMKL

SW-620 [9] = assay: Cell cycle arrest in human SW620 cells assessed as up regulation of cdc25 expression up to 150 nM after 24 hrs by Western blot analysis; assay type: functional, cell-based
[10] = biological target: Serine/threonine-protein kinase WNK4 (Homo sapiens) (UniProt Q96J92); assay: Inhibition of human WNK4 using myelin basic protein as substrate measured after 120 mins in presence of [gamma33P]ATP by scintillation counting method; parameters: scale not given: the % may be the effect or the level left
Chain of Serine/threonine-protein kinase WNK4 (Homo sapiens) (Q96J92 whole entry): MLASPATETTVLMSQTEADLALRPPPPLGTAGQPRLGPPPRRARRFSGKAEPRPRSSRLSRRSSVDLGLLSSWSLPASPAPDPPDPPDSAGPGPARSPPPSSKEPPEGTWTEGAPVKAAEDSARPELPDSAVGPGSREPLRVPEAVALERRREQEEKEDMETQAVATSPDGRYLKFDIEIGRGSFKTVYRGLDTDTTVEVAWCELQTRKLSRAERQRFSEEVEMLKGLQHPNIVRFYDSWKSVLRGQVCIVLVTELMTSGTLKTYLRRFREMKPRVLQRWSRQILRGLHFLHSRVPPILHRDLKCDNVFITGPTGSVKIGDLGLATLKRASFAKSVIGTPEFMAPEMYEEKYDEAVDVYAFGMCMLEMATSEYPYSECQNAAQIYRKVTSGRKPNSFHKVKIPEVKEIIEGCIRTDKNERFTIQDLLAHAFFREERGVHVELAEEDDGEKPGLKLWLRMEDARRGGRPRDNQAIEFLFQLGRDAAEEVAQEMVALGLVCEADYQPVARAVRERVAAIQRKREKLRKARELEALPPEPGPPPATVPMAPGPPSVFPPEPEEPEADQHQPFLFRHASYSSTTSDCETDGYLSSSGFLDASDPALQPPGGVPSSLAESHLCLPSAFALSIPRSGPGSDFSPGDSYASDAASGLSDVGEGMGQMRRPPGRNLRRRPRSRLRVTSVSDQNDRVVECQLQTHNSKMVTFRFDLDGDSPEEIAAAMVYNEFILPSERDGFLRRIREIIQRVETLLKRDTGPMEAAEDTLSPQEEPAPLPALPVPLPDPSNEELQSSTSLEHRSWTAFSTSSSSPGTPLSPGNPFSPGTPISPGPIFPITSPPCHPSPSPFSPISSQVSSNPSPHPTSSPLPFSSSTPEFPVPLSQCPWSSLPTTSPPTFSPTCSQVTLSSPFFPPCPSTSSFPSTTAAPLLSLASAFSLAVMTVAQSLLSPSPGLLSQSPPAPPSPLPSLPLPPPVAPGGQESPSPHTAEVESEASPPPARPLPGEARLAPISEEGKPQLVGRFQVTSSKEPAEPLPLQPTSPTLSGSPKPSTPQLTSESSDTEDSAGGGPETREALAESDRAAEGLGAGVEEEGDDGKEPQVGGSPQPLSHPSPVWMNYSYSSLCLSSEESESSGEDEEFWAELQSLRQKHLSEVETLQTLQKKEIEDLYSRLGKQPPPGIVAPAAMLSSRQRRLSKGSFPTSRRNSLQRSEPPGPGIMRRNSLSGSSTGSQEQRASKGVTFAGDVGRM

Homo sapiens [11] = species: Homo sapiens; assay: Inhibition of recombinant full-length human AURKA I31F mutant assessed as residual activity at 10 uM using LRRASLG as substrate measured after 40 mins in presence of [gamma33P]ATP by scintillation counting method
[12] = biological target: Calcium/calmodulin-dependent protein kinase type 1D (Homo sapiens) (UniProt Q8IU85); assay: Inhibition of recombinant full-length human CaMK1delta assessed as residual activity at 10 uM using calmodulin as substrate measured after 40 mins in presence of [gamma33P]ATP by scintillation counting method
HCT-116 = assay: Induction of apoptosis in human HCT116 cells measured after 48 hrs by Annexin V-FITC/propidium iodide staining-based flow cytometric analysis; assay type: functional, cell-based
[13] = biological target: Maternal embryonic leucine zipper kinase (Homo sapiens) (UniProt Q14680); assay: Inhibition of recombinant human MELK (1 to 340 residues) assessed as residual activity at 10 uM using KKLNRTLSFAEPG as substrate measured after 40 mins in presence of [gamma33P]ATP by scintillation counting method
Chain of Maternal embryonic leucine zipper kinase (Homo sapiens) (Q14680 whole entry, looked up, the tested form may be a part): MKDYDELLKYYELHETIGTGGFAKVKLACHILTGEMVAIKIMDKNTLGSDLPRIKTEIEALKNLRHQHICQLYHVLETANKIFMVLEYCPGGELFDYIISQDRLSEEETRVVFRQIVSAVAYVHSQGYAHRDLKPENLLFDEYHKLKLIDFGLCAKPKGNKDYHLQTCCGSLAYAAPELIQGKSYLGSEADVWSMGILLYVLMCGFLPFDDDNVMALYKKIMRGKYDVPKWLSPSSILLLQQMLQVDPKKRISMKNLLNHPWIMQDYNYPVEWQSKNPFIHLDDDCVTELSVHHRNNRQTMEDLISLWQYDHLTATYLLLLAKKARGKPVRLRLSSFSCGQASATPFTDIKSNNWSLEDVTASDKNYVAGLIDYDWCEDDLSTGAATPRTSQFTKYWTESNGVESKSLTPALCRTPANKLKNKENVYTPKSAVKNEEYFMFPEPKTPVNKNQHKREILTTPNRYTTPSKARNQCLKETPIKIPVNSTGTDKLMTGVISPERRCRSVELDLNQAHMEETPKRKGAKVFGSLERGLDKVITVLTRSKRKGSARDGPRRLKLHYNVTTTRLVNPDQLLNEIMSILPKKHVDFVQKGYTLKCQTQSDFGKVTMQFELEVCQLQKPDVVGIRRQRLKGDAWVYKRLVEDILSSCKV

[14] = biological target: CDK4/Cyclin D3 (Homo sapiens) (UniProt P11802+P30281); assay: Inhibition of recombinant full-length human CDK4/cyclinD3 assessed as residual activity at 10 uM using Rb fragment as substrate measured after 40 mins in presence of [gamma33P]ATP by scintillation counting method; assay type: protein-complex assay
[15] = tested on: Proto-oncogene tyrosine-protein kinase receptor Ret (Homo sapiens), P07949 [V804L]; assay: Inhibition of human Ret V804L mutant (658 to end residues) using KKKSPGEYVNIEFG as substrate measured after 40 mins in presence of [gamma33P]ATP by scintillation counting method; parameters: scale not given: the % may be the effect or the level left
[16] = biological target: Proto-oncogene tyrosine-protein kinase Src (Homo sapiens) (UniProt P12931); assay: Inhibition of human Src (1 to 530 residues) using GGEEEEYFELVKKKK as substrate measured after 40 mins in presence of [gamma33P]ATP by scintillation counting method; parameters: scale not given: the % may be the effect or the level left
[17] = biological target: SRSF protein kinase 3 (Homo sapiens) (UniProt Q9UPE1); assay: Inhibition of recombinant full-length human MSSK1 assessed as residual activity at 10 uM using ERMRPRKRQGSVRRRV as substrate measured after 40 mins in presence of [gamma33P]ATP by scintillation counting method
[18] = tested on: Mast/stem cell growth factor receptor Kit (Homo sapiens), P10721 [D816V]; assay: Inhibition of recombinant human c-Kit D816V mutant (544 to end residues) assessed as residual activity at 10 uM using poly(Glu, Tyr) 4:1 as substrate measured after 40 mins in presence of [gamma33P]ATP by scintillation counting method
Homo sapiens [19] = species: Homo sapiens; assay: Inhibition of recombinant human Plk4 S34T mutant (1 to 273 residues) assessed as residual activity at 10 uM using casein as substrate measured after 40 mins in presence of [gamma33P]ATP by scintillation counting method
[20] = biological target: Fibroblast growth factor receptor 3 (Homo sapiens) (UniProt P22607); assay: Inhibition of recombinant human FGFR3 (447 to 761 residues) assessed as residual activity at 10 uM using poly(Glu, Tyr) 4:1 as substrate measured after 40 mins in presence of [gamma33P]ATP by scintillation counting method
Chain of Fibroblast growth factor receptor 3 (Homo sapiens) (P22607 23-806 limits assumed): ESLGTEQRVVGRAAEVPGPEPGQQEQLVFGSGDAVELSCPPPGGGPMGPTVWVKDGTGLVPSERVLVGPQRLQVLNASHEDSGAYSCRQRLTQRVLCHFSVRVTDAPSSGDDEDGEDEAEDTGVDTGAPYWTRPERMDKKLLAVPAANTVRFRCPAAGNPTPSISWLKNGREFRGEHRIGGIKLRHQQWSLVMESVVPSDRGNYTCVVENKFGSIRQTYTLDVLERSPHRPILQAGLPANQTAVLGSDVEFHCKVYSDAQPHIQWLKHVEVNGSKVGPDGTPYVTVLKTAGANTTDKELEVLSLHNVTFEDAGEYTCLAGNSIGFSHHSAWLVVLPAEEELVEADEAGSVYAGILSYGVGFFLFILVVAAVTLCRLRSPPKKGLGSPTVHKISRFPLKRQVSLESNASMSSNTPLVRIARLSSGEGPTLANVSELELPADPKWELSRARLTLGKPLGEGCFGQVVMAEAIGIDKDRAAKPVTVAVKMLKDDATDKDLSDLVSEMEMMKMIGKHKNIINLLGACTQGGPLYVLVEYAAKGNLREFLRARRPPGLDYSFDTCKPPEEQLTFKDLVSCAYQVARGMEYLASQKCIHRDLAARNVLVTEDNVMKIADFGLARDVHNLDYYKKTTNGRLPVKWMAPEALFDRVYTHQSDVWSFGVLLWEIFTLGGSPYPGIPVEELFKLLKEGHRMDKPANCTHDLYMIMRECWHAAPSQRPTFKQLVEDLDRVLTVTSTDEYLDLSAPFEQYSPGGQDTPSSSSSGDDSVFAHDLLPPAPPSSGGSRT

[21] = biological target: Testis-specific serine/threonine-protein kinase 3 (Homo sapiens) (UniProt Q96PN8); assay: Inhibition of recombinant full-length human TSSK3 assessed as residual activity at 10 uM using AMARAASAAALARRR as substrate measured after 40 mins in presence of [gamma33P]ATP by scintillation counting method
[22] = biological target: Serine/threonine-protein kinase PLK1 (Homo sapiens) (UniProt P53350); assay: Inhibition of recombinant full-length human Plk1 assessed as residual activity at 10 uM using casein as substrate measured after 40 mins in presence of [gamma33P]ATP by scintillation counting method
[23] = Toxicity in nude BALB/c mouse assessed as change in RBC level at 40 to 80 mg/kg, po once daily for 4 weeks measured post-last dose; assay type: organism-based; conditions: in vivo, 672 h
[24] = biological target: Ephrin type-A receptor 5 (Homo sapiens) (UniProt P54756); assay: Inhibition of recombinant human EphA5 (655 to 956 residues) assessed as residual activity at 10 uM using poly(Glu, Tyr) 4:1 as substrate measured after 40 mins in presence of [gamma33P]ATP by scintillation counting method
Chain of Ephrin type-A receptor 5 (Homo sapiens) (P54756 whole entry, the tested form may be a part): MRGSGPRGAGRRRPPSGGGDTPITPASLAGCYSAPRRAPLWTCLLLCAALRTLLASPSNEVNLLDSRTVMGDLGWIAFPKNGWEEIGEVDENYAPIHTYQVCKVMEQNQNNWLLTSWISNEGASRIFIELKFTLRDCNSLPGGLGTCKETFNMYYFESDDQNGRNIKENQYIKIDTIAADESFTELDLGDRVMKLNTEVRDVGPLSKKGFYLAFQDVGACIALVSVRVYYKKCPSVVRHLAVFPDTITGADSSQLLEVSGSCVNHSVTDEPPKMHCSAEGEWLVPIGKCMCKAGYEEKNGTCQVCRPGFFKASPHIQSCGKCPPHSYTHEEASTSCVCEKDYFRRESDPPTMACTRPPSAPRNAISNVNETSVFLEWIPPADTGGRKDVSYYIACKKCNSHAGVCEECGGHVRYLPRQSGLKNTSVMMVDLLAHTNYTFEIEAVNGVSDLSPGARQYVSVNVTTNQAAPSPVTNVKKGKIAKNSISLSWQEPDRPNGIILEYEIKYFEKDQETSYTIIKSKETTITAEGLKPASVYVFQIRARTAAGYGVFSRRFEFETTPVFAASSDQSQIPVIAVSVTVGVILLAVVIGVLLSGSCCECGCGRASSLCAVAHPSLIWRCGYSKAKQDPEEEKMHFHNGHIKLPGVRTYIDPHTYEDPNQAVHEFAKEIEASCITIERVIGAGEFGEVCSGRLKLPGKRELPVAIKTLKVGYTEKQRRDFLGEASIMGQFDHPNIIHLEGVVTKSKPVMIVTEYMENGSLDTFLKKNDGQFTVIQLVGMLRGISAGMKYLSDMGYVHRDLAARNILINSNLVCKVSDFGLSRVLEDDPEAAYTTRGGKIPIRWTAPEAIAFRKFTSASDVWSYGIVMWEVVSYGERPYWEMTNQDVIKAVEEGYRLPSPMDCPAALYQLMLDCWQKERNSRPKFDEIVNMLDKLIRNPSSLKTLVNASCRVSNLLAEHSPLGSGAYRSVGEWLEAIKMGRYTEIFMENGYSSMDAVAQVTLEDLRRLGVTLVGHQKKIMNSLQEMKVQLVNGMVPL

Compound: Cc1cc(C)c(CNc2nc(Cl)nc3c2ncn3C2CCCC2)c(=O)[nH]1
- Activity (SW-620 [1]): 2.71%
- Activity [2]: 108%
- Activity [3]: 104%
- Activity [4]: 110%
- Activity [5]: 116%
- Activity [6]: 91.5%
- Activity [7]: 110%
- Activity [8]: 96.5%
- Activity (SW-620 [9]): Active
- Activity [10]: 98.5%
- Activity (Homo sapiens [11]): 103%
- Activity [12]: 107%
- Activity (HCT-116): Dose-dependent effect
- Activity [13]: 114%
- Activity [14]: 91%
- Activity [15]: 106%
- Activity [16]: 124%
- Activity [17]: 130%
- Activity [18]: 93%
- Activity (Homo sapiens [19]): 98.5%
- Activity [20]: 94.5%
- Activity [21]: 124%
- Activity [22]: 112%
- Activity [23]: Non-Toxic
- Activity [24]: 99%
